Results from ChEMBL document CHEMBL2311309, “Venezuelines A-G, new phenoxazine-based alkaloids and aminophenols from Streptomyces venezuelae and the regulation of gene target Nur77” (Bioorg Med Chem Lett, 2013).
pIC50: −log10 of the molar value. The source made the active and inactive calls. The calls are words filed in the database; no cut-off is given here.

How the values were obtained:
Type in all cases: functional, cell-based
A2780 = assay: Cytotoxicity against human A2780 cells by MTT method
BGC-823 = assay: Cytotoxicity against human BGC823 cells by MTT method
[1] = Cytotoxicity against human NIH-H460 cells by MTT method
A549 = assay: Cytotoxicity against human A549 cells by MTT method
[2] = Cytotoxicity against human […] cells by MTT method
HCT-8 = assay: Cytotoxicity against human HCT8 cells by MTT method
NIH-H460 [3] = assay: Induction of nur77 gene expression in human NIH-H460 cells at 1 to 10 uM by RT-PCR analysis; settings: TDE = time-dependent effect
NIH-H460 [4] = assay: Induction of nur77 gene expression in human NIH-H460 cells at 10 uM within 6 hrs by RT-PCR analysis
NIH-H460 [5] = assay: Induction of nur77 gene expression in human NIH-H460 cells after 6 to 12 hrs by RT-PCR analysis
NIH-H460 [6] = assay: Induction of nur77 gene expression in human NIH-H460 cells at 1 uM within 12 hrs by RT-PCR analysis
NIH-H460 [7] = assay: Induction of nur77 gene expression in human NIH-H460 cells at 1 to 10 uM after 3 hrs by RT-PCR analysis
NIH-H460 [8] = assay: Induction of nur77 gene expression in human NIH-H460 cells after 3 hrs by RT-PCR analysis

Structure (SMILES): O=c1[nH]cc(F)c(=O)[nH]1 [FLUOROURACIL]
- pIC50 (A2780): 5.27
- pIC50 (BGC-823): 5.42
- pIC50 [1]: 5.15
- pIC50 (A549): 5.81
- pIC50 [2]: 5.41
- pIC50 (HCT-8): 5.27

Structure (SMILES): O=C(CO)Nc1cc2nc3cc(CO)ccc3oc-2cc1=O [CHANDRANANIMYCIN D]
- IC50 (A2780): > 30 µg/mL
- IC50 (BGC-823): > 30 µg/mL
- IC50 [1]: > 30 µg/mL
- IC50 (A549): > 30 µg/mL
- IC50 [2]: > 30 µg/mL
- IC50 (HCT-8): > 30 µg/mL

Structure (SMILES): CCCC(=O)OCc1ccc2oc3cc(=O)c(NC(C)=O)cc-3nc2c1 [VNEZUELINE E]
- IC50 (A2780): > 30 µg/mL
- IC50 (BGC-823): > 30 µg/mL
- IC50 [1]: > 30 µg/mL
- IC50 (A549): > 30 µg/mL
- IC50 [2]: > 30 µg/mL
- IC50 (HCT-8): > 30 µg/mL

Structure (SMILES): CC(=O)Nc1cc(Cc2cc3oc4cc(=O)c(NC(C)=O)cc-4nc3cc2CO)ccc1O [VNEZUELINE A]
- IC50 (A2780): > 30 µg/mL
- IC50 (BGC-823): > 30 µg/mL
- IC50 [1]: > 30 µg/mL
- IC50 (A549): > 30 µg/mL
- IC50 [2]: > 30 µg/mL
- IC50 (HCT-8): > 30 µg/mL

Structure (SMILES): CC(=O)Nc1cc2c(cc1OC(=O)CO)Oc1ccc(CO)cc1N2 [VNEZUELINE C]
- IC50 (A2780): > 50 µg/mL
- IC50 (BGC-823): > 50 µg/mL
- IC50 [1]: > 50 µg/mL
- IC50 (A549): > 50 µg/mL
- IC50 [2]: > 50 µg/mL
- IC50 (HCT-8): > 50 µg/mL

Structure (SMILES): CC(=O)Nc1cc2nc3cc(C(=O)O)ccc3oc-2cc1=O [CARBOXYEXFOLIAZONE]
- IC50 (A2780): > 30 µg/mL
- IC50 (BGC-823): > 30 µg/mL
- IC50 [1]: > 30 µg/mL
- IC50 (A549): > 30 µg/mL
- IC50 [2]: > 30 µg/mL
- IC50 (HCT-8): > 30 µg/mL

Structure (SMILES): CC(=O)Nc1cc(COCc2ccc(O)c(NC(C)=O)c2)ccc1O [VNEZUELINE F]
- IC50 (A2780): > 50 µg/mL
- IC50 (BGC-823): > 50 µg/mL
- IC50 [1]: > 50 µg/mL
- IC50 (A549): > 50 µg/mL
- IC50 [2]: > 50 µg/mL
- IC50 (HCT-8): > 50 µg/mL

Structure (SMILES): CC(=O)Nc1cc2nc3cc(CO)ccc3oc-2cc1=O [EXFOLIAZONE]
- Activity (NIH-H460 [3]): tde
- pIC50 (A2780): 5.60
- pIC50 (BGC-823): 5.47
- pIC50 [1]: 4.87
- pIC50 (A549): 5.04
- Activity (NIH-H460 [4]): Active
- pIC50 [2]: < 5.00
- pIC50 (HCT-8): 5.31
- Activity (NIH-H460 [5]): Dose-dependent effect
- Activity (NIH-H460 [6]): Active

Structure (SMILES): COCc1ccc(O)c(NC(C)=O)c1 [VNEZUELINE G]
- IC50 (A2780): > 50 µg/mL
- IC50 (BGC-823): > 50 µg/mL
- IC50 [1]: > 50 µg/mL
- IC50 (A549): > 50 µg/mL
- IC50 [2]: > 50 µg/mL
- IC50 (HCT-8): > 50 µg/mL

Structure (SMILES): O=C(CO)Nc1cc2c(cc1OC(=O)CO)Oc1ccc(CO)cc1N2 [VNEZUELINE D]
- IC50 (A2780): > 50 µg/mL
- IC50 (BGC-823): > 50 µg/mL
- IC50 [1]: > 50 µg/mL
- Activity (NIH-H460 [7]): inactive
- IC50 (A549): > 50 µg/mL
- IC50 [2]: > 50 µg/mL
- IC50 (HCT-8): > 50 µg/mL

Structure (SMILES): O=C1NC2=Nc3cc(CO)ccc3O[C@]23[C@H](O)CC[C@H]13 [VNEZUELINE B]
- pIC50 (A2780): 5.18
- pIC50 (BGC-823): 5.17
- pIC50 [1]: 5.01
- Activity (NIH-H460 [8]): Dose-dependent effect
- pIC50 (A549): 5.12
- pIC50 [2]: < 5.00
- pIC50 (HCT-8): 5.24
